The supplement of paper PMC10307832

Legend:
Test in all cases: relative viability (nuclei count vs DMSO), 5 days (fraction); higher = more cells survive
201T = system: 201T
Method in brief: (§1)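 Nuclei were stained with Hoechst during a one-step fixation (final 0.05% Triton X-100, 1% formaldehyde, 1 ug/ml Hoechst) carried out 5 days after dosing, then counted on 4× images. The cells, lung cancer lines in 1536-well plates, had been dosed by pin tool the day after seeding with one drug alone or a fixed anchor-drug dose plus five library-drug doses (not always all listed) in √10 steps. Relative viability is the nuclei count in treated wells divided by that in vehicle wells, and each value is the median of duplicate plates.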

COR-L 105 = system: COR-L 105
Method in brief: as §1

ChaGo-K-1 = system: ChaGo-K-1
Method in brief: as §1

EKVX = system: EKVX
Method in brief: as §1

H3255 = system: H3255
Method in brief: as §1

HARA = system: HARA
Method in brief: as §1

HCC-827 = system: HCC-827
Method in brief: as §1

HOP-62 = system: HOP-62
Method in brief: as §1

LCLC-103H = system: LCLC-103H
Method in brief: as §1

LOU-NH91 = system: LOU-NH91
Method in brief: as §1

NCI-H1975 = system: NCI-H1975
Method in brief: as §1

NCI-H2126 = system: NCI-H2126
Method in brief: as §1

NCI-H2228 = system: NCI-H2228
Method in brief: as §1

NCI-H23 = system: NCI-H23
Method in brief: as §1

NCI-H2405 = system: NCI-H2405
Method in brief: as §1

NCI-H3122 = system: NCI-H3122
Method in brief: as §1

NCI-H596 = system: NCI-H596
Method in brief: as §1

NCI-H650 = system: NCI-H650
Method in brief: as §1

NCI-H661 = system: NCI-H661
Method in brief: as §1

NCI-H727 = system: NCI-H727
Method in brief: as §1

PC-3 [JPC-3] = system: PC-3 [JPC-3]
Method in brief: as §1

SK-LU-1 = system: SK-LU-1
Method in brief: as §1

SW 900 = system: SW 900
Method in brief: as §1

In the case of Cc1cn(-c2cc(NC(=O)c3ccc(C)c(Nc4nccc(-c5cccnc5)n4)c3)cc(C(F)(F)F)c2)cn1 [Nilotinib] + Cc1cc(Nc2cc(N3CCN(C)CC3)nc(Sc3ccc(NC(=O)C4CC4)cc3)n2)n[nH]1 [Tozasertib] (partner 0.1 µM), the relative viability (201T; first compound 0.003162 µM) is reported as 1.18, the relative viability (201T; first compound 0.01 µM) is reported as 0.976 and the relative viability (201T; first compound 0.03162 µM) is reported as 0.691. It also gave a relative viability (201T; first compound 0.1 µM) of 0.634, a relative viability (COR-L 105; first compound 0.001 µM) of 0.361 and a relative viability (COR-L 105; first compound 0.003162 µM) of 0.329. For the same compound, the relative viability (COR-L 105; first compound 0.01 µM) was 0.497, the relative viability (COR-L 105; first compound 0.03162 µM) was 0.329 and the relative viability (COR-L 105; first compound 0.1 µM) was 0.317. The relative viability (ChaGo-K-1; first compound 0.001 µM) was 0.205, the relative viability (ChaGo-K-1; first compound 0.003162 µM) was 0.229 and the relative viability (ChaGo-K-1; first compound 0.01 µM) was 0.202. It also gave a relative viability (ChaGo-K-1; first compound 0.03162 µM) of 0.162, a relative viability (ChaGo-K-1; first compound 0.1 µM) of 0.138 and a relative viability (EKVX; first compound 0.001 µM) of 0.368. It also gave a relative viability (EKVX; first compound 0.003162 µM) of 0.341, a relative viability (EKVX; first compound 0.01 µM) of 0.35 and a relative viability (EKVX; first compound 0.03162 µM) of 0.252. For the same compound, the relative viability (EKVX; first compound 0.1 µM) was 0.261, the relative viability (H3255; first compound 0.001 µM) was 0.532 and the relative viability (H3255; first compound 0.003162 µM) was 0.516. It also gave a relative viability (H3255; first compound 0.03162 µM) of 0.48, a relative viability (H3255; first compound 0.1 µM) of 0.717 and a relative viability (HARA; first compound 0.001 µM) of 0.0752. For the same compound, the relative viability (HARA; first compound 0.003162 µM) was 0.102, the relative viability (HARA; first compound 0.01 µM) was 0.102 and the relative viability (HARA; first compound 0.03162 µM) was 0.0999. The relative viability (HARA; first compound 0.1 µM) was 0.0992, the relative viability (HCC-827; first compound 0.003162 µM) was 0.521 and the relative viability (HCC-827; first compound 0.01 µM) was 0.529. It also gave a relative viability (HCC-827; first compound 0.03162 µM) of 0.39, a relative viability (HCC-827; first compound 0.1 µM) of 0.379 and a relative viability (HOP-62; first compound 0.001 µM) of 0.288. It also gave a relative viability (HOP-62; first compound 0.01 µM) of 0.289, a relative viability (LCLC-103H; first compound 0.001 µM) of 0.347 and a relative viability (LCLC-103H; first compound 0.003162 µM) of 0.425. The relative viability (LCLC-103H; first compound 0.01 µM) was 0.452, the relative viability (LCLC-103H; first compound 0.03162 µM) was 0.364 and the relative viability (LCLC-103H; first compound 0.1 µM) was 0.293. For the same compound, the relative viability (LOU-NH91; first compound 0.001 µM) was 0.696, the relative viability (LOU-NH91; first compound 0.003162 µM) was 0.708 and the relative viability (LOU-NH91; first compound 0.01 µM) was 0.781. The relative viability (LOU-NH91; first compound 0.03162 µM) was 0.62, the relative viability (LOU-NH91; first compound 0.1 µM) was 0.726 and the relative viability (NCI-H1975; first compound 0.001 µM) was 0.212. It also gave a relative viability (NCI-H1975; first compound 0.003162 µM) of 0.224, a relative viability (NCI-H1975; first compound 0.01 µM) of 0.205 and a relative viability (NCI-H1975; first compound 0.03162 µM) of 0.154. The relative viability (NCI-H1975; first compound 0.1 µM) was 0.218, the relative viability (NCI-H2126; first compound 0.001 µM) was 0.786 and the relative viability (NCI-H2126; first compound 0.003162 µM) was 0.857. It also gave a relative viability (NCI-H2126; first compound 0.01 µM) of 0.963, a relative viability (NCI-H2126; first compound 0.03162 µM) of 0.599 and a relative viability (NCI-H2126; first compound 0.1 µM) of 0.438. It also gave a relative viability (NCI-H2228; first compound 0.003162 µM) of 0.223, a relative viability (NCI-H2228; first compound 0.01 µM) of 0.212 and a relative viability (NCI-H2228; first compound 0.03162 µM) of 0.16. The relative viability (NCI-H2228; first compound 0.1 µM) was 0.141, the relative viability (NCI-H23; first compound 0.001 µM) was 0.303 and the relative viability (NCI-H23; first compound 0.003162 µM) was 0.329. For the same compound, the relative viability (NCI-H23; first compound 0.01 µM) was 0.283, the relative viability (NCI-H23; first compound 0.03162 µM) was 0.247 and the relative viability (NCI-H23; first compound 0.1 µM) was 0.226. For the same compound, the relative viability (NCI-H2405; first compound 0.001 µM) was 0.767, the relative viability (NCI-H2405; first compound 0.003162 µM) was 0.765 and the relative viability (NCI-H2405; first compound 0.01 µM) was 0.712. For the same compound, the relative viability (NCI-H2405; first compound 0.03162 µM) was 0.654, the relative viability (NCI-H2405; first compound 0.1 µM) was 0.723 and the relative viability (NCI-H3122; first compound 0.001 µM) was 0.364. For the same compound, the relative viability (NCI-H3122; first compound 0.003162 µM) was 0.519, the relative viability (NCI-H3122; first compound 0.01 µM) was 0.436 and the relative viability (NCI-H3122; first compound 0.03162 µM) was 0.374. It also gave a relative viability (NCI-H3122; first compound 0.1 µM) of 0.18, a relative viability (NCI-H596; first compound 0.001 µM) of 0.799 and a relative viability (NCI-H596; first compound 0.003162 µM) of 0.972. The relative viability (NCI-H596; first compound 0.01 µM) was 1.01, the relative viability (NCI-H596; first compound 0.03162 µM) was 0.619 and the relative viability (NCI-H596; first compound 0.1 µM) was 0.68. It also gave a relative viability (NCI-H650; first compound 0.001 µM) of 0.665, a relative viability (NCI-H650; first compound 0.003162 µM) of 0.67 and a relative viability (NCI-H650; first compound 0.01 µM) of 0.725. The relative viability (NCI-H650; first compound 0.03162 µM) was 0.672, the relative viability (NCI-H650; first compound 0.1 µM) was 0.68 and the relative viability (NCI-H661; first compound 0.001 µM) was 0.346. For the same compound, the relative viability (NCI-H661; first compound 0.003162 µM) was 0.357, the relative viability (NCI-H661; first compound 0.01 µM) was 0.364 and the relative viability (NCI-H661; first compound 0.03162 µM) was 0.382. For the same compound, the relative viability (NCI-H661; first compound 0.1 µM) was 0.355, the relative viability (NCI-H727; first compound 0.001 µM) was 0.599 and the relative viability (NCI-H727; first compound 0.003162 µM) was 0.624. It also gave a relative viability (NCI-H727; first compound 0.01 µM) of 0.503, a relative viability (NCI-H727; first compound 0.03162 µM) of 0.437 and a relative viability (NCI-H727; first compound 0.1 µM) of 0.599. For the same compound, the relative viability (PC-3 [JPC-3]; first compound 0.001 µM) was 0.736, the relative viability (PC-3 [JPC-3]; first compound 0.003162 µM) was 0.932 and the relative viability (PC-3 [JPC-3]; first compound 0.01 µM) was 0.91. For the same compound, the relative viability (PC-3 [JPC-3]; first compound 0.03162 µM) was 0.621, the relative viability (PC-3 [JPC-3]; first compound 0.1 µM) was 0.426 and the relative viability (SK-LU-1; first compound 0.001 µM) was 0.304. For the same compound, the relative viability (SK-LU-1; first compound 0.003162 µM) was 0.292, the relative viability (SK-LU-1; first compound 0.01 µM) was 0.287 and the relative viability (SK-LU-1; first compound 0.03162 µM) was 0.293. It also gave a relative viability (SK-LU-1; first compound 0.1 µM) of 0.286, a relative viability (SW 900; first compound 0.001 µM) of 0.324 and a relative viability (SW 900; first compound 0.003162 µM) of 0.51. The relative viability (SW 900; first compound 0.01 µM) was 0.389, the relative viability (SW 900; first compound 0.03162 µM) was 0.34 and the relative viability (SW 900; first compound 0.1 µM) was 0.262.
